The values below come from patent US20230027929A1, “MrgprX2 Antagonists and Uses Thereof” (Dermira, Inc., priority 2019, published 2023).

This test deals with T1, hMrgpMRGPRX2 (Homo sapiens, UniProt Q96LB1).
T1 construct: expressed in transfected cells
T1 sequence (Q96LB1 1-330): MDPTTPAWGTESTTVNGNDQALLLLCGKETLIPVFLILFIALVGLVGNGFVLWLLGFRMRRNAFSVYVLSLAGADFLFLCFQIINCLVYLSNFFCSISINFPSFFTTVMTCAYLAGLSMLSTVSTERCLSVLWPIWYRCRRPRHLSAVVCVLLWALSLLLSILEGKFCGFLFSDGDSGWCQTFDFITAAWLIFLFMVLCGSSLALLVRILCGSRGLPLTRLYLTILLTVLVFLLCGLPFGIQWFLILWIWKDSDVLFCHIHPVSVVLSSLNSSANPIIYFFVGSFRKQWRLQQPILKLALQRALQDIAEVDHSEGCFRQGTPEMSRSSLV
Put plainly: FLIPR intracellular calcium mobilization, antagonist activity in recombinant hMrgpMRGPRX2 expressing cells. It counts as cell-based. To be noted: read-out: Human MrgprX2 Antagonist pIC50 (converted). An outline of the steps: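 Antagonist activity was read as inhibition of intracellular calcium mobilization (FLIPR) in recombinant cells expressing human MrgprX2. Potency was also checked in LAD-2 human mast cells with endogenous receptor, and orthologue activity in cells expressing mouse MrgprB2, mouse MrgprA1, and gerbil, Chinese hamster and cynomolgus orthologues.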
Turning to `CC1(C)C(C(=O)Nc2ccc(-c3ccon3)cn2)C1(C)C` [Compound E275, N-(5-isoxazol-3-yl-2-pyridyl)-2,2,3,3-tetramethyl-cyclopropanecarboxamide], the IC50 was 12.3 nM.
In the case of `CC(C)C(=O)Nc1ccc(Cc2cccc(F)c2)cn1` [Compound E276, N-[5-[(3-fluorophenyl)methyl]-2-pyridyl]-2-methyl-propanamide] it was 501 nM.
Take `NS(=O)(=O)N1CCC[C@@H]1C(=O)Nc1ccc(Oc2ccc(F)c(F)c2)cn1` [Compound E277, (2R)-N-[5-(3,4-difluorophenoxy)-2-pyridyl]-1-sulfamoyl-pyrrolidine-2-carboxamide]: the IC50 was 1910 nM.
Take `CN1CCC[C@@H]1C(=O)Nc1ccc(Oc2ccc(F)c(F)c2)cn1` [Compound E278, (2R)-N-[5-(3,4-difluorophenoxy)-2-pyridyl]-1-methyl-pyrrolidine-2-carboxamide]: the IC50 is 2630 nM.
In the case of `NS(=O)(=O)N1CCC[C@@H]1C(=O)Nc1ccc(Oc2cc(F)cc(F)c2)cn1` [Compound E279] it was 240 nM; in that of `NS(=O)(=O)N1CCC[C@@H]1C(=O)Nc1ccc(Oc2cc(F)ccc2F)cn1` [Compound E280], 589 nM; in that of `C[C@]1(C(=O)Nc2ccc(Oc3cc(F)ccc3F)cn2)CCCN1S(N)(=O)=O` [Compound E281], 81.3 nM.
As for `C[C@]1(C(=O)Nc2ccc(Oc3cc(F)cc(F)c3)cn2)CCCN1S(N)(=O)=O` [Compound E282], the IC50 was 27.5 nM.
In the case of `NS(=O)(=O)N1CCC[C@H]1C(=O)Nc1ccc(Oc2cc(F)cc(F)c2)cn1` [Compound E283], the IC50 is 562 nM.
For the compound `CC1(C)CC(=O)N(c2ccc(Oc3ccc(F)c(F)c3)cn2)C1` [Compound E284, 1-[5-(3,4-difluorophenoxy)-2-pyridyl]-4,4-dimethyl-pyrrolidin-2-one], the IC50 is 1780 nM.
Consider `CC1(C)CCN(c2ccc(Oc3ccc(F)c(F)c3)cn2)C1=O` [Compound E285, 1-[5-(3,4-difluorophenoxy)-2-pyridyl]-3,3-dimethyl-pyrrolidin-2-one], for which the IC50 was 257 nM.
In the case of `CCN(C[C@@H](O)C(F)(F)F)S(=O)(=O)Nc1ccc(Oc2ccc(F)c(F)c2)cn1` [Compound E286, 5-(3,4-difluorophenoxy)-2-[[ethyl-[(2R)-3,3,3-trifluoro-2-hydroxy-propyl]sulfamoyl]amino]pyridine] it was 2290 nM; in that of `CC(C)C(=O)Nc1ncc(Oc2cccc(F)c2)cc1O` [Compound E287, N-[5-(3-fluorophenoxy)-3-hydroxy-2-pyridyl]-2-methyl-propanamide], 794 nM; in that of `CC1(C)C(C(=O)Nc2ccc(Oc3cncc(F)c3)nn2)C1(C)C` [Compound E288, N-[6-[(5-fluoro-3-pyridyl)oxy]pyridazin-3-yl]-2,2,3,3-tetramethyl-cyclopropanecarboxamide], 9120 nM.
In the case of `CCN(C[C@@H](O)C(F)(F)F)C(=O)Nc1cc(Oc2ccc(F)c(F)c2)ncn1` [Compound E289, 3-[6-(3,4-difluorophenoxy)pyrimidin-4-yl]-1-ethyl-1-[(2R)-3,3,3-trifluoro-2-hydroxy-propyl]urea] it was 724 nM; in that of `CCN(C[C@@H](O)C(F)(F)F)C(=O)Nc1cc(Oc2ccccc2F)ncn1` [Compound E290, 1-ethyl-3-[6-(2-fluorophenoxy)pyrimidin-4-yl]-1-[(2R)-3,3,3-trifluoro-2-hydroxy-propyl]urea], 692 nM.
The value for `CCN(C[C@@H](O)C(F)(F)F)C(=O)Nc1cc(Oc2cccc(F)c2)ncn1` [Compound E291, 1-ethyl-3-[6-(3-fluorophenoxy)pyrimidin-4-yl]-1-[(2R)-3,3,3-trifluoro-2-hydroxy-propyl]urea] was 891 nM; that for `CC1(C)C(C(=O)Nc2ccc(Oc3cncc(F)c3)cn2)C1(C)C` [Compound E0530] was 2 nM.
